The source of these data is patent US20060211670A1, “Antitumoral18a-homoestra-1,3,5(10)-trien-3yl 2-substituted sulfamates” (priority 2003, published 2006).

The subject of test [1] is NCl-H460 human non-small-cell lung cancer cells. In words: Inhibition of cell proliferation (crystal violet), NCl-H460. In kind it is cell-based. The following applies: NCl-H460, 4 days incubation. The procedure:
(§1) Cell cultures of the following cell lines were prepared in 96-well microtiter plates: • 1. MaTu/ADR multidrug-resistant human breast tumor cells (Epo GmbH Berlin), 5000 cells/well. • 2. HCT116 human colon tumor cells (ATCC CCL-247), 3000 cells/well. • 3. NCl-H460 human non-small-cell lung cancer cells (ATCC HTB-177), 3000 cells/well. • 4. DU145 human prostate tumor cells (ATCC HTB-81), 5000 cells/well. • 5. HMVEC human primary dermal microvascular endothelial cells, 7500 cells/well.
(§2) After 24 hours of incubation in a cell culture incubator at 37° C., the cells of a microtiter plate were stained with crystal violet (reference plate), while the cells in the test plates were incubated for 4 days with the test substances in the concentrations […], as well as with the DMSO solvent by itself (solvent control). The cell proliferation was determined by staining cells with crystal violet. The extinction of the crystal violet was determined by photometry at 595 nm. The percentage of the change in the cell number in the test plates was determined after the extinction values were normalized to the reference plate (0%) and to the solvent control (100%). The semi-maximal inhibition of the cell growth (IC50) was determined as the substance concentration, in which 50% of the cell number of the solvent controls were present.

Test [2] concerns DU145 human prostate tumor cells. In words: Inhibition of cell proliferation (crystal violet), DU145. Type of test: cell-based. The note with it: DU145, 4 days incubation. How it is done: as §1, §2
In test [3] the target is T1, microtubular protein (tubulin) from pig brains (Sus scrofa, UniProt P02550+P02554).
T1 construct: microtubular protein was purified from pig brains via cydic assembling/disassembling; from tissue; host or cells: pig brain
T1 sequence (P02550 whole entry): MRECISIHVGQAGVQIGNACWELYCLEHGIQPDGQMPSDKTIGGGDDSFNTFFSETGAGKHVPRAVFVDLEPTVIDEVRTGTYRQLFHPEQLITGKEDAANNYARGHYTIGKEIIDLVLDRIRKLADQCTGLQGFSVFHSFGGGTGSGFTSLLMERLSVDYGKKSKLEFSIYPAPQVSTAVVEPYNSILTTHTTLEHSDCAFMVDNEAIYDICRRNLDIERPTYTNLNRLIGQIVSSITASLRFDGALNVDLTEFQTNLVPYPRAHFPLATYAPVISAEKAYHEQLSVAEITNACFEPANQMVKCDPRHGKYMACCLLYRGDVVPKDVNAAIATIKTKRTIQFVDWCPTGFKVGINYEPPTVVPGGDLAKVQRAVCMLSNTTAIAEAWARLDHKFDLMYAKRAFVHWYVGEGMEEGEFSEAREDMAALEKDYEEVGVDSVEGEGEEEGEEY
T1 sequence (P02554 whole entry): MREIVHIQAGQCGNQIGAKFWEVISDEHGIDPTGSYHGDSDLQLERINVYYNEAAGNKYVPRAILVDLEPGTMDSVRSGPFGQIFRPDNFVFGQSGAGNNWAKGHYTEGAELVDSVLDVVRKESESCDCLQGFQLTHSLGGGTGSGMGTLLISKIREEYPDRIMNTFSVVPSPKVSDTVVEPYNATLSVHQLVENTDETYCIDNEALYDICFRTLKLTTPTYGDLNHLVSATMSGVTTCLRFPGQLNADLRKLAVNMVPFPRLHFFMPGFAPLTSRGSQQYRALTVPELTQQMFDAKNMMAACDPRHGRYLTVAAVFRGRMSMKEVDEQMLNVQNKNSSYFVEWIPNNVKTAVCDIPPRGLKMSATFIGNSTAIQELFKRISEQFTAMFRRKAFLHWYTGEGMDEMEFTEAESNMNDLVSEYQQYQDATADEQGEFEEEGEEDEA
In words: Inhibition of tubulin polymerization (turbidimetry at 340 nm). In kind it is biochemical. The note with it: pig brain microtubular protein 1 mg/ml, 0.25 mmol GTP, 37° C.
Description: The in-vitro testing of the tubulin polymerization influence was performed as follows:
The buffer system used had the following composition: 20 mmol of PIPES (1,4-piperazine-diethane-sulfonic acid, pKa 6.8), 80 mmol of NaCl, 0.5 mmol of MgCl2, 1 mmol of EGTA (ethylene glycol-bis-(2-aminoethylene)-tetraacetic acid).
For active ingredient testing, protein concentrations of 1 mg/ml (about 10^−5 mmol of tubulin) were used. The determination of protein was carried out according to the Lowry Method (Lowry et al. J. Biol. Chem. 1951, 193, 265-75) with bovine serum albumin as a standard. The assembling of microtubuli was carried out in the presence of 0.25 mmol of GTP and heating the samples to 37° C.
The microtubulus formation was examined by means of turbidimetry at a wavelength of 340 nm.
Testing of the active ingredients was carried out by their addition at the beginning of the assembling or in the state of equilibrium. Deviations of turbidity curves from the control characterize its activity. To monitor action and to evaluate the measured turbidity values, a transmission electron microscopic study (CEM 902 A, Zeiss/Oberkochen) of the assemblates was always performed after negative staining with 1% aqueous uranyl acetate.

Test [4] has as its system HMVEC human primary dermal microvascular endothelial cells. In words: Inhibition of cell proliferation (crystal violet), HMVEC. Type of test: cell-based. The note with it: 4 days incubation. The procedure: as §1, §2
Test [5] has as its system MaTu/ADR multidrug-resistant human breast tumor cells. In words: Inhibition of cell proliferation (crystal violet), MaTu/ADR. Type of test: cell-based. The following applies: 4 days incubation. How it is done:
as §1, §2

Test [6] has as its system HCT116 human colon tumor cells. In words: Inhibition of cell proliferation (crystal violet), HCT116. Type of test: cell-based. The note with it: HCT116, 4 days incubation. How it is done:
as §1, §2

As to `COc1cc2c(cc1O)CC[C@@H]1[C@@H]2CC[C@]2(C)[C@@H](O)CC[C@@H]12` [2-Methoxyestradiol, reference compound], the IC50 in test [1] is 1.8 µM; in test [2] it was 1.9 µM; in test [3], 2.7 µM; in test [4] it was 2.2 µM; in test [5] it was 0.2 µM; in test [6], 1.1 µM.
Consider `CC[C@]12CC[C@@H]3c4cc(OC)c(OS(N)(=O)=O)cc4CC[C@H]3[C@@H]1CC[C@@H]2O` [(1), 17β-Hydroxy-2-methoxy-18a-homoestra-1,3,5(10)-trien-3-yl sulfamate], for which the IC50 is less than 0.1 µM in test [1] (Homo sapiens, 96 h); 0.15 µM in test [2] (Homo sapiens, DU-145, 96 h); 0.5 µM in test [3]; less than 0.1 µM in test [4] (Homo sapiens, 96 h); less than 0.1 µM in test [5] (Homo sapiens, 96 h); less than 0.1 µM in test [6] (Homo sapiens, HCT-116, 96 h).
As to `CCOc1cc2c(cc1OS(N)(=O)=O)CC[C@@H]1[C@@H]2CC[C@]2(CC)[C@@H](O)CC[C@@H]12` [(2), 2-Ethoxy-17β-hydroxy-18a-homoestra-1,3,5(10)trien-3-yl sulfamate], the IC50 in test [1] amounted to 0.3 µM; in test [2] it was 0.9 µM; in test [4], 0.5 µM; in test [5] it was 0.1 µM; in test [6], 0.4 µM.
With `CC[C@@]12CCC[C@H]1[C@@H]1CCc3cc(OS(N)(=O)=O)c(OC)cc3[C@H]1CC2` [(4), 2-Methoxy-18a-homoestra-1,3,5(10)-trien-3-yl sulfamate], the IC50 amounted to 0.5 µM in test [1] (Homo sapiens, 96 h); 0.6 µM in test [2] (Homo sapiens, DU-145, 96 h); 1.8 µM in test [3]; 0.6 µM in test [4] (Homo sapiens, 96 h); 0.45 µM in test [5] (Homo sapiens, 96 h); 0.6 µM in test [6] (Homo sapiens, HCT-116, 96 h).
With `CC[C@]12CC[C@@H]3c4cc(OC)c(OS(N)(=O)=O)cc4CC[C@H]3[C@@H]1CC[C@@H]2OC` [(5), 2,17β-Dimethoxy-18a-homoestra-1,3,5(10)-trien-3-yl Sulfamate], the IC50 in test [1] is 0.13 µM; in test [2] it was 0.19 µM; in test [4], less than 0.1 µM; in test [5] it was less than 0.1 µM; in test [6], less than 0.1 µM.
In the case of `CCc1cc2c(cc1OS(N)(=O)=O)CC[C@@H]1[C@@H]2CC[C@]2(CC)[C@@H](OS(N)(=O)=O)CC[C@@H]12` [(6), 2-Ethyl-18a-homoestra-1,3,5(10)-triene-3,17β-diyl Sulfamate], the IC50 in test [1] is 0.18 µM; in test [2], 0.18 µM; in test [4] it was less than 0.1 µM; in test [5], 0.1 µM; in test [6] it was 0.18 µM.
`CC(=O)O[C@H]1C(=O)[C@@]2(C)[C@H]([C@H](OC(=O)c3ccccc3)[C@]3(O)C[C@H](OC(=O)[C@H](O)[C@@H](NC(=O)c4ccccc4)c4ccccc4)C(C)=C1C3(C)C)[C@]1(OC(C)=O)CO[C@@H]1C[C@@H]2O` [Taxol, reference compound]: the IC50 is 0.004 µM in test [1] (Homo sapiens, 96 h); 0.004 µM in test [2] (Homo sapiens, DU-145, 96 h); 0.004 µM in test [4] (Homo sapiens, 96 h); 0.4 µM in test [5] (Homo sapiens, 96 h); 0.004 µM in test [6] (Homo sapiens, HCT-116, 96 h).
